The values that follow come from patent US12479848B2, “Substituted fused heteroaromatic bicyclic compounds as kinase inhibitors and the use thereof” (IMPACT THERAPEUTICS (SHANGHAI), INC, priority 2019, dated 2025).

The target in one experiment is T1, ATR/ATRIP enzyme (Homo sapiens, UniProt Q13535).
T1 construct: purchased Eurofins 14-953
In words: ATR enzyme activity experiment (HTRF). The settings on record: for IC50: read-out: IC50 (nM), inhibitory effects on ATR kinase activity, HTRF, p53 substrate, 30 minutes at room temperature. In kind it is biochemical. The method, then:
The test compound was diluted to a 4× final concentration with reaction buffer (25 mM HEPES (pH8.0), 10 mM MnCl2, 1% glycerol, 0.01% Brij-35, 5 mM DTT and 0.1% BSA). […] The mixture was centrifuged at 1000 rpm for 1 minute, and reacted at room temperature protected from light for 30 minutes. Then 5 μL of EDTA stop solution (250 mM) was added to stop the reaction. […] Data were analyzed using GraphPad Prism6.0, and fitted using the curve equation: Y=Bottom+(Top−Bottom)/(1+10^((Log IC50−X)*HillSlope)) and IC50 values were calculated.
In general terms: TR-FRET usually uses a lanthanide donor and a delayed reading to cut background.

The test system of experiment [1] is human colon cancer cell LoVo. The experiment is described as follows: MTT proliferation assay, LoVo. In kind it is cell-based. As for the experimental part:
The cells were seeded into 96-well cell culture plate with a density of 2000/4000 cells per well and incubated overnight in a 5% CO2 incubator at 37° C. […] 5 μL diluent of each concentration was added to 120 μL of medium (25 times diluted) and mixed by shaking. The overnight cell plates were taken and the culture medium was removed, 195 μL of fresh medium was added to each well, and 5 μL of diluted medium containing the corresponding concentration of the test compound was added respectively (the final concentration of DMSO is 1%), and the culture plate was then placed in a 5% CO2 incubator at 37° C. for 4 days. After removing the original solution, 100 μL of fresh serum-free DMEM medium containing MTT (0.5 mg/mL) was added to each well, the culture was continued. […] Cell viability (%)=(ODcompound−ODbackground)/(ODDMSO-ODbackground)×100. GraphPad Prism 6.0 was used to analyze the data. The inhibitory activity of compounds on cell proliferation was plotted based on cell viability and the logarithm of compound concentration.
(In general: Tetrazolium dyes change colour on reduction, which living cells bring about.)

For experiment [2], the system named is human lung cancer cell NCI-H460. In words: MTT proliferation assay, NCI-H460. In kind it is cell-based. The conditions noted are these: for IC50: Homo sapiens, NCI-H460, 96 h, 4 days, read-out: IC50 (nM), inhibition of proliferation of NCI-H460. The method, then:
The cells were seeded into 96-well cell culture plate with a density of 2000/4000 cells per well and incubated overnight in a 5% CO2 incubator at 37° C. […] diluent of each concentration was added to 120 μL of medium (25 times diluted) and mixed by shaking. The overnight cell plates were taken and the culture medium was removed, 195 μL of fresh medium was added to each well, and 5 μL of diluted medium containing the corresponding concentration of the test compound was added respectively (the final concentration of DMSO is 1%), and the culture plate was then placed in a 5% CO2 incubator at 37° C. for 4 days. After removing the original solution, 100 μL of fresh serum-free DMEM medium containing MTT (0.5 mg/mL) was added to each well, the culture was continued. […] Cell viability (%)=(ODcompound−ODbackground)/(ODDMSO−ODbackground)×100. GraphPad Prism 6.0 was used to analyze the data. The inhibitory activity of compounds on cell proliferation was plotted based on cell viability and the logarithm of compound concentration.

For experiment [3], the system named is human prostate cancer cell DU145. The experiment is described as follows: MTT proliferation assay, DU145. In kind it is cell-based. The settings on record: for IC50: Homo sapiens, DU-145, 96 h, 4 days, read-out: IC50 (nM), inhibition of proliferation of DU145. The method, then: The cells were digested by trypsinase and centrifuged at 800 rpm for 5 minutes, the supernatant was discarded, and the residual was resuspended with fresh medium (DMEM medium+10% FBS+non-essential amino acid) and counted. The cells were seeded into 96-well cell culture plate with a density of 2000 cells per well and incubated overnight in a 5% CO2 incubator at 37° C. […] 5 μL of each concentration was added to 120 μL of medium (25 times diluted) and mixed by shaking. The overnight cell plates were taken and the culture medium was removed, 195 μL of fresh medium was added to each well, and 5 μL of diluted medium containing the corresponding concentration of the test compound was added respectively (the final concentrations of compounds are shown in Table 3, the final concentration of DMSO is 1%), and the culture plate was then placed in a 5% CO2 incubator at 37° C. for 4 days. After removing the original solution, 100 μL of fresh serum-free DMEM medium containing MTT (0.5 mg/mL) was added to each well, the culture was continued. […] GraphPad Prism 6.0 was used to analyze the data. The inhibitory activity of compounds on cell proliferation was plotted based on cell viability and the logarithm of compound concentration. Cell viability %=(ODcompound−ODbackground)/(ODDMSO−ODbackground)×100.

T1 sequence (Q13535 whole entry): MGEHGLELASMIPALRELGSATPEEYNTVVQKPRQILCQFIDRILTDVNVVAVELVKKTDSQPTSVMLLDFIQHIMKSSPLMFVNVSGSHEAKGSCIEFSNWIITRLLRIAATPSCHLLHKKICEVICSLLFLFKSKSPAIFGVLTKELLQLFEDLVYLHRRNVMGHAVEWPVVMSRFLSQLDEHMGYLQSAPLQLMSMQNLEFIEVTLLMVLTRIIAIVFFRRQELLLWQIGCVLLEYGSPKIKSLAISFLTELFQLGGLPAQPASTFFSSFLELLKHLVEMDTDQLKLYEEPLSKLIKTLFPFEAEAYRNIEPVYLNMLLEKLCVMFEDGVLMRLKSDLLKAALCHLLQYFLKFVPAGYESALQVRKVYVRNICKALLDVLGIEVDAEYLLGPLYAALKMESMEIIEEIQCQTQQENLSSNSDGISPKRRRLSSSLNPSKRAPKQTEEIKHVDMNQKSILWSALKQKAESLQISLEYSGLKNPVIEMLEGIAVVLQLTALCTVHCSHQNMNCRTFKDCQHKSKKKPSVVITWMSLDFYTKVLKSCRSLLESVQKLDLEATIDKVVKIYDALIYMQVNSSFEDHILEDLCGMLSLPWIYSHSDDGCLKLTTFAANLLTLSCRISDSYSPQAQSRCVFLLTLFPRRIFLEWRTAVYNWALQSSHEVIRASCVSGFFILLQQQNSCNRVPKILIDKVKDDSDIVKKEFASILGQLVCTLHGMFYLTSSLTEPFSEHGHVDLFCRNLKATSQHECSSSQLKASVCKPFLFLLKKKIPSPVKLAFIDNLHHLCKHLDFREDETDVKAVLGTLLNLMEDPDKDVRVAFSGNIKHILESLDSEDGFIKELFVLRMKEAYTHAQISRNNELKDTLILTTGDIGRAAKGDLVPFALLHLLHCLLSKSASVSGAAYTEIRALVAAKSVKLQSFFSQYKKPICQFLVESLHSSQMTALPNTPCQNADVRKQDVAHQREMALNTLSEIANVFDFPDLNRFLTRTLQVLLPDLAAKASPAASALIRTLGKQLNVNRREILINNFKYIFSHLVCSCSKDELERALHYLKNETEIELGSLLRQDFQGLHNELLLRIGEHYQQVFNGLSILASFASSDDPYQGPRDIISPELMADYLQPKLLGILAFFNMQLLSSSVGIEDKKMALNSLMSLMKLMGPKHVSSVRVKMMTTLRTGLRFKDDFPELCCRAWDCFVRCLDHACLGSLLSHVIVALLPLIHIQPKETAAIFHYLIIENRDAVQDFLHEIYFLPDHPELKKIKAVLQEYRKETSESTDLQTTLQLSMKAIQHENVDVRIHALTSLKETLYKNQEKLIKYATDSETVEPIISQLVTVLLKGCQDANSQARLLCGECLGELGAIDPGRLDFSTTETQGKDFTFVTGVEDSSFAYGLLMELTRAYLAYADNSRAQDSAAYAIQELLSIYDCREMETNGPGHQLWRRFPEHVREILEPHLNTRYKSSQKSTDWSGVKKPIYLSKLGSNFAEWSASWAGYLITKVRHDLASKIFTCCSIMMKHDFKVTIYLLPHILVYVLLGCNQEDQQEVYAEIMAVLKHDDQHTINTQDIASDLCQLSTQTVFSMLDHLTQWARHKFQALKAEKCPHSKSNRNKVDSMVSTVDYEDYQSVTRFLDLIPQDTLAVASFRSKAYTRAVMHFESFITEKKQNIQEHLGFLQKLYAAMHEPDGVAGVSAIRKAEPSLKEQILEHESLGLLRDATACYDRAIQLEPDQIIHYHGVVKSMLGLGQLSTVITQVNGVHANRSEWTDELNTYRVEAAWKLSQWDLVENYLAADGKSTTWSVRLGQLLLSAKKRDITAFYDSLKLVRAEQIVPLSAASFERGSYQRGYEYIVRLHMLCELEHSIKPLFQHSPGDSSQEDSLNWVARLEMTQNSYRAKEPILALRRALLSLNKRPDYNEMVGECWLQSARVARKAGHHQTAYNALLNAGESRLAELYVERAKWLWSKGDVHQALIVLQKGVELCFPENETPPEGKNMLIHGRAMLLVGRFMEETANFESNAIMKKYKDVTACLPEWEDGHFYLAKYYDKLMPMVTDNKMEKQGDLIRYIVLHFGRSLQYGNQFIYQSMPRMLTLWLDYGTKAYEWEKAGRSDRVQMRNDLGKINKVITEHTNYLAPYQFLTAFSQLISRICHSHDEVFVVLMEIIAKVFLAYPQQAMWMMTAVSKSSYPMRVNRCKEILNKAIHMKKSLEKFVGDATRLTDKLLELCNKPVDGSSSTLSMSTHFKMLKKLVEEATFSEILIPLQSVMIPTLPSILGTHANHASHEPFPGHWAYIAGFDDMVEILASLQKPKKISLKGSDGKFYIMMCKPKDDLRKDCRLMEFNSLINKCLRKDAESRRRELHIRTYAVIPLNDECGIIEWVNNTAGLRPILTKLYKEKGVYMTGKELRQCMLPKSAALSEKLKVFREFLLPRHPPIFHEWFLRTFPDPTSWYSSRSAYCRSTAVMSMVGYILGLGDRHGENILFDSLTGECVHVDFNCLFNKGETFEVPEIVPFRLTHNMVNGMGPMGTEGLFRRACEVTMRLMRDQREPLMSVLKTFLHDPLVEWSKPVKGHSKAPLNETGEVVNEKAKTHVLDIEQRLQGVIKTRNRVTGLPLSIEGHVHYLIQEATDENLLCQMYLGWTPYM
T1 sequence (Q8WXE1 whole entry partner): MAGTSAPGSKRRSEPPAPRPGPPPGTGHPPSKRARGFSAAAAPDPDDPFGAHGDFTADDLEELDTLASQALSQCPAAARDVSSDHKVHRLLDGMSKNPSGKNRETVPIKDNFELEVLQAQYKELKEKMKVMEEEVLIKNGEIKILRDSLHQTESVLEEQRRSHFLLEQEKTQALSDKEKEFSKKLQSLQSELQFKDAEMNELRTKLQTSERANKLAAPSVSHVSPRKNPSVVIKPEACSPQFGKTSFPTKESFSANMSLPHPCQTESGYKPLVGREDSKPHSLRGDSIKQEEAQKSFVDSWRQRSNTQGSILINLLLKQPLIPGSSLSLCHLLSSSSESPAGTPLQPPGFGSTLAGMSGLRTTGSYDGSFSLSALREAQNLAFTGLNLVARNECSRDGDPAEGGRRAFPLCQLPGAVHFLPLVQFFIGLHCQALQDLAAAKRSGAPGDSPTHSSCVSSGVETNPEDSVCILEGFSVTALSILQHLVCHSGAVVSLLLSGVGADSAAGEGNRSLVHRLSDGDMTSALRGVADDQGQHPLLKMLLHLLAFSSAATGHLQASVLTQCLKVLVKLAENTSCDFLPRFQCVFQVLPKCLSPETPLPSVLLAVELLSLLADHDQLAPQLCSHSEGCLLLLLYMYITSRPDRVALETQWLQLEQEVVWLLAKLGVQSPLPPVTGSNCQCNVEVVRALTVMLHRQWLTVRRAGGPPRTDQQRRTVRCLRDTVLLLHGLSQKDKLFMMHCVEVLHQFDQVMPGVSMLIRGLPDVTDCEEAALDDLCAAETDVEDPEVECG

In the case of `C[C@@H]1COCCN1c1cc(-c2ccnn2C)c2ncc(-c3ccn[nH]3)n2n1` [Example 2, (R)-3-methyl-4-(8-(1-methyl-1H-pyrazol-5-yl)-3-(1H-pyrazol-5-yl)imidazo[1,2-b]pyridazin-6-yl)morpholine], the IC50 at ATR/ATRIP enzyme came out at 938 nM. Also, the “inhibitory effect on the proliferation of LoVo cell (in words)” value in experiment [1] was “inhibitory effect”. Moreover, in experiment [2], the “inhibitory effect on the proliferation of NCI-H460 cell (in words)” value is “inhibitory effect” and the IC50 is 907 nM. In experiment [3], the “inhibitory effect on the proliferation of DU145 cell (in words)” value is given as “inhibitory effect” and the IC50 came out at 1220 nM.

As to `C[C@@H]1COCCN1c1cc(-c2ccnn2C)c2cnc(-c3ccn[nH]3)n2n1` [Example 13, (R)-3-methyl-4-(4-(1-methyl-1H-pyrazol-5-yl)-7-(1H-pyrazol-5-yl)imidazo[1,5-b]pyridazin-2-yl)morpholine], the “inhibitory effect on ATR kinase activity (in words)” value at ATR/ATRIP enzyme (ATR enzyme activity experiment) was “good inhibitory effect”. The IC50 on ATR/ATRIP enzyme stood at 4 nM; in experiment [1] (Homo sapiens, LoVo, 96 h, 4 days, read-out: IC50 (nM), inhibition of proliferation of LoVo), 53.5 nM; in experiment [2] it was 41.3 nM; in experiment [3] it was 131 nM. For the same compound, the “inhibitory effect on the proliferation of LoVo cell (in words)” value in experiment [1] is listed as “good inhibitory effect”. Also, the “inhibitory effect on the proliferation of NCI-H460 cell (in words)” value in experiment [2] was “good inhibitory effect”. Also, the “inhibitory effect on the proliferation of DU145 cell (in words)” value in experiment [3] is listed as “good inhibitory effect”.

For `CC(C)n1nccc1-c1cc(N2CCOC[C@H]2C)nn2c(-c3ccn[nH]3)cnc12` [Example 4, (R)-3-methyl-4-(8-(1-isopropyl-1H-pyrazol-5-yl)-3-(1H-pyrazol-5-yl)imidazo[1,2-b]pyridazin-6-yl)morpholine], the IC50 in experiment [2] was determined as 531 nM; in experiment [3], 1090 nM.
